What was measured:
Settings in all cases: main component drawn
S. aureus Newman [1] = assay: fitness (endpoint OD595 vs no drug) (fraction); higher = more growth
Method in brief: (§1)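 With the first reading as background, OD595 was measured every 30 min for 14 h in 384-well plates kept at 37 °C and inoculated at OD595 0.01. TSB, LB Lennox or CY was the medium. Fitness is the optical density at the transition into stationary phase divided by the robust mean of no-drug control wells, with a cap of 1.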

S. aureus DSM 20231 [2] = assay: as above
Method in brief: as §1

B. subtilis 168 = assay: Bliss interaction score (quartile over a dose matrix) (fitness difference); higher = more antagonism (negative = synergy)
Method in brief: (§2)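 Values were capped at 1 after dividing OD595 at stationary-phase entry by the plate's robust no-drug mean. This ratio is fitness, and single-drug fitness was inferred from the combination data. The Bliss score is observed minus product-expected fitness, given as quartiles over technical, biological and donor/recipient replicates.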

S. aureus Newman [3] = assay: as above
Method in brief: as §2

S. pneumoniae D39V = assay: as above
Method in brief: as §2

S. aureus DSM 20231 [4] = assay: as above
Method in brief: as §2
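Wherever Bliss interaction score (quartile over a dose matrix) is given: first quartile when negative (synergy) and third quartile when positive (antagonism).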

CO/N=C(\C(=O)N[C@@H]1C(=O)N2C(C(=O)[O-])=C(C[N+]3(C)CCCC3)CS[C@H]12)c1csc(N)n1 [Cefepime] + CCCCCCCCCC(=O)N[C@@H]1[C@H]([C@@H]([C@H](O[C@H]1OC2=C3C=C4C=C2OC5=C(C=C(C=C5)[C@H]([C@H]6C(=O)N[C@@H](C7=C(C(=CC(=C7)O)OC8[C@H]([C@H]([C@@H]([C@H](O8)CO)O)O)O)C9=C(C=CC(=C9)[C@H](C(=O)N6)NC(=O)[C@@H]4NC(=O)[C@@H]1C2=CC(=CC(=C2)OC2=C(C=CC(=C2)[C@H](C(=O)N[C@H](CC2=CC(=C(O3)C=C2)Cl)C(=O)N1)N)O)O)O)C(=O)O)O[C@H]1[C@@H]([C@H]([C@@H]([C@H](O1)CO)O)O)NC(=O)C)Cl)CO)O)O [Teicoplanin]
fitness
Settings | first compound 0.125 µg/mL | first compound 0.25 µg/mL | first compound 0.5 µg/mL
S. aureus DSM 20231 [2], partner 0.1562 µg/mL | 0.9 | 0.88 | 0.864
S. aureus DSM 20231 [2], partner 0.3125 µg/mL | 0.959 | 0.929 | 0.919
S. aureus DSM 20231 [2], partner 0.625 µg/mL | 0.984 | 0.87 | 0.842
S. aureus Newman [1], partner 0.1562 µg/mL | 0.892 | 0.827 | 0.713
S. aureus Newman [1], partner 0.3125 µg/mL | 0.897 | 0.799 | 0.73
S. aureus Newman [1], partner 0.625 µg/mL | 0.891 | 0.766 | 0.646

fitness, S. aureus Newman [1], one replicate
Settings | first compound 0.125 µg/mL | first compound 0.25 µg/mL | first compound 0.5 µg/mL
partner 0.62 µg/mL | 0.712 | 0.61 | 0.625
partner 1.24 µg/mL | 0.7 | 0.634 | 0.576
partner 2.48 µg/mL | 0.459 | 0.173 | 0.203

Settings | Bliss interaction score
B. subtilis 168 | -0.172
S. aureus DSM 20231 [4] | -0.0986
S. aureus Newman [3] | -0.0867
S. pneumoniae D39V | 0.0453

CCCCCCCCCC(=O)N[C@@H](Cc1c[nH]c2ccccc12)C(=O)N[C@H](CC(N)=O)C(=O)N[C@@H](CC(=O)O)C(=O)N[C@@H]1C(=O)NCC(=O)N[C@@H](CCCN)C(=O)N[C@@H](CC(=O)O)C(=O)N[C@H](C)C(=O)N[C@@H](CC(=O)O)C(=O)NCC(=O)N[C@H](CO)C(=O)N[C@@H]([C@H](C)CC(=O)O)C(=O)N[C@@H](CC(=O)c2ccccc2N)C(=O)O[C@@H]1C [Daptomycin] + CCCCCCCCCC(=O)N[C@@H]1[C@H]([C@@H]([C@H](O[C@H]1OC2=C3C=C4C=C2OC5=C(C=C(C=C5)[C@H]([C@H]6C(=O)N[C@@H](C7=C(C(=CC(=C7)O)OC8[C@H]([C@H]([C@@H]([C@H](O8)CO)O)O)O)C9=C(C=CC(=C9)[C@H](C(=O)N6)NC(=O)[C@@H]4NC(=O)[C@@H]1C2=CC(=CC(=C2)OC2=C(C=CC(=C2)[C@H](C(=O)N[C@H](CC2=CC(=C(O3)C=C2)Cl)C(=O)N1)N)O)O)O)C(=O)O)O[C@H]1[C@@H]([C@H]([C@@H]([C@H](O1)CO)O)O)NC(=O)C)Cl)CO)O)O [Teicoplanin]
fitness
Settings | first compound 0.125 µg/mL | first compound 0.25 µg/mL | first compound 0.5 µg/mL | first compound 1 µg/mL | first compound 2 µg/mL
S. aureus DSM 20231 [2], partner 0.1562 µg/mL | 0.976 | 0.977 | ≥ 1 | 0.949 | ≥ 1
S. aureus DSM 20231 [2], partner 0.3125 µg/mL | ≥ 1 | ≥ 1 | ≥ 1 | ≥ 1 | 0.991
S. aureus DSM 20231 [2], partner 0.625 µg/mL | ≥ 1 | ≥ 1 | ≥ 1 | ≥ 1 | ≥ 1
S. aureus Newman [1], partner 0.1562 µg/mL | 0.998 | 0.992 | ≥ 1 | – | –
S. aureus Newman [1], partner 0.3125 µg/mL | ≥ 1 | ≥ 1 | ≥ 1 | – | –
S. aureus Newman [1], partner 0.625 µg/mL | ≥ 1 | ≥ 1 | ≥ 1 | – | –

fitness, S. aureus Newman [1], one replicate
Settings | first compound 0.5 µg/mL | first compound 1 µg/mL | first compound 2 µg/mL
partner 0.62 µg/mL | 0.791 | 0.785 | 0.924
partner 1.24 µg/mL | 0.746 | 0.753 | 0.765
partner 2.48 µg/mL | 0.461 | 0.471 | 0.501

Settings | Bliss interaction score
B. subtilis 168 | 0.0936
S. aureus DSM 20231 [4] | 0.0282
S. aureus Newman [3] | 0.0337
S. pneumoniae D39V | 0.0818

— the supplement of paper PMC10627819
